Among the data in patent publication US8138189B2, “Substituted benzene compounds as modulators of the glucocorticoid receptor” (Hoffman-La Roche Inc., priority 2009, dated 2012) are Ki values, retold here.

The structures appear in SMILES notation.

The assay concerns the target T1, full length human recombinant glucocorticoid receptor (Homo sapiens, UniProt P04150).
T1 construct: partially purified full length human recombinant glucocorticoid receptor; purchased Panvera/Invitrogen PV4302
T1 sequence (P04150 1-777): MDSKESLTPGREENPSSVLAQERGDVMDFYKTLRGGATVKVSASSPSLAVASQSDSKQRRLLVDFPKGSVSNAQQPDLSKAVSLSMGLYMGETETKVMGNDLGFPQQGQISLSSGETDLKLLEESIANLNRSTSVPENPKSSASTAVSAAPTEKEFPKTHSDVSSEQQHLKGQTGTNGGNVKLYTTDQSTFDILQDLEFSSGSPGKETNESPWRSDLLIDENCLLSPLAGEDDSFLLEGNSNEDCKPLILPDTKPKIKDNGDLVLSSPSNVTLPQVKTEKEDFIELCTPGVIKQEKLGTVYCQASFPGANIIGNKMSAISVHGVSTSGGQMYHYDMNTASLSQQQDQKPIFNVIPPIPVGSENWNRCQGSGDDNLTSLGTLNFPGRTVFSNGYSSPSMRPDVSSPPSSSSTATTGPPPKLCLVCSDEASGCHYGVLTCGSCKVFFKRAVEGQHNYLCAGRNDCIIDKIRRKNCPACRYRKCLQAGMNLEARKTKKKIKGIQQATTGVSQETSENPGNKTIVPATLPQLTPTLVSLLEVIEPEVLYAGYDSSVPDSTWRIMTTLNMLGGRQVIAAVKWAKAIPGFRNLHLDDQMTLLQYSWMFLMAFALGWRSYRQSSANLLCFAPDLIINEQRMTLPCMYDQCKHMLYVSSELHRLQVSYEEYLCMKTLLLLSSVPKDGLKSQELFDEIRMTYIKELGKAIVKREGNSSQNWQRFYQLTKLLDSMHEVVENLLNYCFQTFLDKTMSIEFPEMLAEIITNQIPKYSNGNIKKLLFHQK
The experiment in a line: Glucocorticoid Receptor Binding Assay (fluorescence polarization competitor assay, Fluormone GS Far Red tracer). A digest of the protocol:
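Partially purified full-length recombinant human GR with a stabilizing coactivator peptide was incubated with Fluormone GS Far Red tracer and serially diluted compound for 3 h at 22 °C in the dark, pH 7.4. Fluorescence polarization was read at 610-660 nm. IC50 came from sigmoidal fitting, and Ki from Cheng-Prusoff.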
On the technique in general: Polarisation of emitted light reports the rotation of a fluorescent probe.

For orientation: Ki means the equilibrium dissociation constant of an inhibitor or competing ligand from its target. As to `CCOC(=O)c1ccc(COc2ccc(C(C)C(O)(c3ccncc3)C(F)(F)F)c(Cl)c2)cc1` (stereo not drawn) [Example 106, 4-[3-Chloro-4-(3,3,3-trifluoro-2-hydroxy-1-methyl-2-pyridin-4-yl-propyl)-phenoxymethyl]-benzoic acid ethyl ester], the inhibitory constant (Ki) amounted to 47.1 nM.
`CC(c1ccc(OCc2ccc(C(=O)O)cc2)cc1Cl)C(O)(c1ccncc1)C(F)(F)F` (stereo not drawn) [Example 107, 4-[3-Chloro-4-(3,3,3-trifluoro-2-hydroxy-1-methyl-2-pyridin-4-yl-propyl)-phenoxymethyl]-benzoic acid]: the inhibitory constant (Ki) amounted to 30.8 nM.
Regarding `COc1cc(C(=O)O)ccc1COc1ccc(C(C)C(O)(c2ccncc2)C(F)(F)F)c(Cl)c1` (stereo not drawn) [Example 109, 4-[3-Chloro-4-(3,3,3-trifluoro-2-hydroxy-1-methyl-2-pyridin-4-yl-propyl)-phenoxymethyl]-3-methoxy-benzoic acid], the inhibition constant (Ki) came to 79.2 nM.
Then `COC(=O)c1ccc(COc2ccc(C(C)C(O)(c3ccnc(Cl)c3)C(F)(F)F)c(Cl)c2)nc1` (stereo not drawn) [Example 110, 6-{3-Chloro-4-[2-(2-chloro-pyridin-4-yl)-3,3,3-trifluoro-2-hydroxy-1-methyl-propyl]-phenoxymethyl}-nicotinic acid methyl ester], with 6.4 nM; and `CC(c1ccc(OCc2ccc(C(=O)O)cn2)cc1Cl)C(O)(c1ccnc(Cl)c1)C(F)(F)F` (stereo not drawn) [Example 111, 6-{3-Chloro-4-[2-(2-chloro-pyridin-4-yl)-3,3,3-trifluoro-2-hydroxy-1-methyl-propyl]-phenoxymethyl}-nicotinic acid], with 13 nM.
For the compound `COC(=O)c1cnc(COc2ccc(C(C)C(O)(c3ccnc(Cl)c3)C(F)(F)F)c(Cl)c2)cn1` (stereo not drawn) [Example 112, 5-{3-Chloro-4-[2-(2-chloro-pyridin-4-yl)-3,3,3-trifluoro-2-hydroxy-1-methyl-propyl]-phenoxymethyl}-pyrazine-2-carboxylic acid methyl ester], the Ki amounted to 9.2 nM.
In the case of `CC(c1ccc(OCc2cnc(C(=O)O)cn2)cc1Cl)C(O)(c1ccnc(Cl)c1)C(F)(F)F` (stereo not drawn) [Example 113, 5-{3-Chloro-4-[2-(2-chloro-pyridin-4-yl)-3,3,3-trifluoro-2-hydroxy-1-methyl-propyl]-phenoxymethyl}-pyrazine-2-carboxylic acid], the Ki worked out at 13.6 nM.
Then `COC(=O)c1cnc(Oc2ccc(C(C)C(O)(c3ccnc(Cl)c3)C(F)(F)F)c(Cl)c2)cn1` (stereo not drawn) [Example 114, 5-{3-Chloro-4-[2-(2-chloro-pyridin-4-yl)-3,3,3-trifluoro-2-hydroxy-1-methyl-propyl]-phenoxy}-pyrazine-2-carboxylic acid methyl ester], with 24.2 nM; and `CC(c1ccc(Oc2cnc(C(=O)O)cn2)cc1Cl)C(O)(c1ccnc(Cl)c1)C(F)(F)F` (stereo not drawn) [Example 115, 5-{3-Chloro-4-[2-(2-chloro-pyridin-4-yl)-3,3,3-trifluoro-2-hydroxy-1-methyl-propyl]-phenoxy}-pyrazine-2-carboxylic acid], with 96.8 nM.
Regarding `COC(=O)c1cnc(Oc2ccc(C(C)C(O)(c3ccnc(Cl)c3)C(F)(F)F)c(Cl)c2)nc1` (stereo not drawn) [Example 116, 2-{3-Chloro-4-[2-(2-chloro-pyridin-4-yl)-3,3,3-trifluoro-2-hydroxy-1-methyl-propyl]-phenoxy}-pyrimidine-5-carboxylic acid methyl ester], the Ki was 40.6 nM.
`CC(c1ccc(Oc2ncc(C(=O)O)cn2)cc1Cl)C(O)(c1ccnc(Cl)c1)C(F)(F)F` (stereo not drawn) [Example 117, 2-{3-Chloro-4-[2-(2-chloro-pyridin-4-yl)-3,3,3-trifluoro-2-hydroxy-1-methyl-propyl]-phenoxy}-pyrimidine-5-carboxylic acid]: the Ki was determined as 111 nM.
Consider `COC(=O)c1ccc(Oc2ccc(C(C)C(O)(c3ccnc(Cl)c3)C(F)(F)F)c(Cl)c2)nc1` (stereo not drawn) [Example 118, 6-{3-Chloro-4-[2-(2-chloro-pyridin-4-yl)-3,3,3-trifluoro-2-hydroxy-1-methyl-propyl]-phenoxy}-nicotinic acid methyl ester], for which the inhibitory constant (Ki) was found to be 10.8 nM.
With `CC(c1ccc(Oc2ccc(C(=O)O)cn2)cc1Cl)C(O)(c1ccnc(Cl)c1)C(F)(F)F` (stereo not drawn) [Example 119, 6-{3-Chloro-4-[2-(2-chloro-pyridin-4-yl)-3,3,3-trifluoro-2-hydroxy-1-methyl-propyl]-phenoxy}-nicotinic acid] the figure was 20.4 nM; with `COc1cc(C(=O)O)ccc1COc1ccc(C(C)C(O)(c2cnn3ccccc23)C(F)(F)F)c(Cl)c1` (stereo not drawn) [Example 129, 4-[3-Chloro-4-(3,3,3-trifluoro-2-hydroxy-1-methyl-2-pyrazolo[1,5-a]pyridin-3-yl-propyl)-phenoxymethyl]-3-methoxy-benzoic acid], 267 nM; with `COc1cc(Oc2ccc(Cl)c(C(C)C(O)(c3ccnc(Cl)c3)C(F)(F)F)c2)ccc1C(=O)O` (stereo not drawn) [Example 131, 4-{4-Chloro-3-[2-(2-chloro-pyridin-4-yl)-3,3,3-trifluoro-2-hydroxy-1-methyl-propyl]-phenoxy}-2-methoxy-benzoic acid], 437 nM.
Consider `C[C@H](c1ccc(Oc2ccc(OCC(=O)O)cc2)cc1Cl)[C@@](O)(c1ccc(=O)n(C)c1)C(F)(F)F` [Example 160], for which the Ki came out at 1.6 nM.
In the case of `COC(=O)c1ccc(-c2ccc([C@H](C)[C@](O)(c3ccc(=O)n(C)c3)C(F)(F)F)c(Cl)c2)cc1F` [Example 166, 3′-Chloro-3-fluoro-4′-[3,3,3-trifluoro-2-hydroxy-1-methyl-2-(1-methyl-6-oxo-1,6-didydro-pyridin-3-yl)-propyl]-biphenyl-4-carboxylic acid methyl ester], the Ki was 6.2 nM.
For `C[C@@H](c1ccc(-c2ccc(C(=O)O)c(F)c2)cc1Cl)[C@](O)(c1ccc(=O)n(C)c1)C(F)(F)F` [Example 167, 3′-Chloro-3-fluoro-4′-[3,3,3-trifluoro-2-hydroxy-1-methyl-2-(1-methyl-6-oxo-1,6-dihydro-pyridin-3-yl)-propyl]-propylphiphenyl-4-carboxylic acid], the inhibition constant (Ki) was 45.9 nM.
For `COC(=O)c1ccc(-c2ccc([C@H](C)[C@](O)(c3ccc(=O)n(C)c3)C(F)(F)F)c(Cl)c2)cc1Cl` [Example 168, 3,3′-Dichloro-4′-[3,3,3-trifluoro-2-hydroxy-1-methyl-2-(1-methyl-6-oxo-1,6-dihydro-pyridin-3-yl)-propyl]-propylphiphenyl-4-carboxylic acid methyl ester], the Ki was found to be 2.6 nM.
For the compound `Cc1cc([C@](O)([C@H](C)c2ccc(Oc3ccc(C(=O)O)c(Cl)c3)cc2Cl)C(F)(F)F)sc1C#N` [Example 235, 2-Chloro-4-{3-chloro-4-[2-(5-cyano-4-methyl-thiophen-2-yl)-3,3,3-trifluoro-2-hydroxy-1-methyl-propyl]-phenoxy}-benzoic acid], the Ki amounted to 1.8 nM.
Turning to `Cc1cc([C@@](O)([C@@H](C)c2ccc(Oc3ccc(C(=O)O)cc3Cl)cc2Cl)C(F)(F)F)cn(C)c1=O` [Example 244, 3-Chloro-4-{3-chloro-4-[(1S,2S)-2-(1,5-dimethyl-6-oxo-1,6-dihydro-pyridin-3-yl)-3,3,3-trifluoro-2-hydroxy-1-methyl-propyl]-phenoxy}-benzoic acid], the Ki is 601 nM.
